Experimental data reported in US20230037862A1, “SYNTHETIC AGONISTS OF TLR4 RECEPTOR” (UNIVERSITÀ DEGLO STUDI DI MILANO - BICOCCA, priority 2017, published 2023).
Entries after “also recorded” stand apart in the source; their conditions may differ.

Columns and labels:
HEK-Blue™ Null2 cells = experiment: HEK-Blue Null2 counter-assay (SEAP reporter, no TLR4/MD-2/CD14); type: cell-based; conditions: 16-18 hours
Method: HEK-Blue™ hTLR4 (FIG. 1A) and HEK-Blue™ Null2 (FIG. 1B) cells were treated with the indicated concentrations of compounds FP11, FP111, and with LPS (100 ng/mL) and incubated for 16-18 hours. Results were normalized to stimulation with LPS alone, and are expressed as mean of percentage ±ES. of at least three independent experiments.
In order to be certain that the agonist effect of compound FP11 be due to the interaction with the TLR4 receptor, the compounds were tested on the HEK-Blue™ Null2 cell line. Said line expresses the same reporter gene of HEK-Blue™ hTLR4 cells (SEAP), but has none of the receptors involved in endotoxin recognition (TLR4, MD-2, CD14).

[1] = molecular target: T1, purified human MD-2 receptor (Homo sapiens, UniProt Q9Y6Y9); experiment: MD-2-bound fluorescent molecule (bis-ANS) displacement assay; type: binding; conditions: MD-2 200 nM, bis-ANS 200 nM
T1 sequence (Q9Y6Y9 19-160): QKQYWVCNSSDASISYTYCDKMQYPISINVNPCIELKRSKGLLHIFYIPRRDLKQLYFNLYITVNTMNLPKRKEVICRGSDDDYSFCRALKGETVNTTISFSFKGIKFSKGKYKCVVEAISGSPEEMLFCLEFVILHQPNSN
Method: therefore, TLR4 modulators that interact with MD-2 compete with compound bis-ANS, and are able to displace it from MD-2.
Fluorescence was measured on PerkinElmer fluorimeter LS 55 (PerkinElmer, UK) as previously described^[5].
All measurements were done at 20° C. in a 5×5 mm quartz glass cuvette (Hellma Suprasil, Müllheim, Germany). MD-2 protein (200 nM) and 1,1′-Bis(anilino)-4,4′-bis (naphtalene)-8,8′ disulfonate (bis-ANS, 200 nM) were mixed and incubated until reaching stable relative fluorescence units (RFUs) emitted at 420-550 nm under excitation at 385 nm.
Compounds, at different concentrations, were then added, followed by relative fluorescence unit (RFU) measurement at 420-550 nm.

[2] = molecular target: T1, purified human MD-2 receptor; experiment: Biotinylated LPS displacement from MD-2 hydrophobic pocket (ELISA); type: binding
Method: The ability to displace LPS from MD-2 hydrophobic pocket was assessed by using an ELISA assay. Molecules FP11 and FP111 were added at increasing concentrations to MD-2 which had previously been incubated with biotinylated LPS.
The ability of the compounds to displace LPS from MD-2 hydrophobic pocket was determined by ELISA.
A microtiter plate was coated overnight at 4° C. with 100 μL/well of 5 μg/mL chicken polyclonal anti-MD-2 antibodies, diluted in 50 mM Na2CO3 buffer, pH 9.6, and blocked with 1% BSA in PBS. After washing, 1 μM MD-2 with biotin-labeled LPS was added and incubated for 2 h. After washing, the compounds were added at different concentrations and incubated for 1.5 h.
After washing, 0.5 μg/mL HRP-conjugated streptavidin (Sigma) in PBS was added, followed by detection at 420 nm after the addition of 100 μL of ABTS (Sigma). Chicken anti-MD-2 polyclonal antibodies were prepared against recombinant MD-2 by GenTel (Madison, Wis., USA),

[3] = molecular target: T1, purified human MD-2 receptor; experiment: Anti-MD-2 antibody (9B4) competition, antibody-sandwich ELISA; type: binding
Method: The direct binding of molecules FP11 and FP111 to MD-2 was analyzed by using a monoclonal antibody binding MD-2, but not LPS-bound MD-2 (Viriyakosol, S., et al., Characterization of monoclonal antibodies to human soluble MD-2 protein. Hybridoma (Larchmt), 2006. 25(6): p. 349-57).
Anti-MD-2 monoclonal antibody (9B4) specifically binds an epitope near the MD-2 hydrophobic pocket, which is available for 9B4 antibody binding only when the MD-2 hydrophobic pocket is empty. Compound FP11 is accountable for a decrease of 9B4 antibody binding to MD-2 equal to 95% at a concentration of 20 μM (FIG. 3E).
The method of antibody-sandwich ELISA for the detection of the binding of compounds to MD-2 was modified from a previous study.
A microtiter plate was coated overnight at 4° C. with 100 μL/well of 5 μg/mL of chicken polyclonal anti-MD-2 antibodies, diluted in 50 mM Na2CO3 buffer, pH 9.6, and blocked with 1% BSA in PBS. After washing, 1 μM MD-2 with tested compounds was added and incubated for 2 h.
Mouse anti-MD-2 mAb (0.1 μg/mL 9B4) and goat antimouse IgG conjugated with HRP (0.1 μg/mL) in PBS were added, followed by detection at 420 nm after the addition of 100 μL of ABTS (Sigma).
Chicken anti-MD-2 polyclonal antibodies were prepared against recombinant MD-2 by GenTel (Madison, Wis., USA), monoclonal mouse anti-MD-9B4 antibodies were from eBioscience (San Diego, Calif., USA), and secondary goat antimouse IgG conjugated with horseradish peroxidase was from Santa Cruz Biotechnology (Santa Cruz, Calif., USA).

CCCCCCCCCCCCCC(=O)NC1C(OC(=O)CCCCCCCCCCCCC)[C@H](OC(=O)CCCCCCCCCCCCC)C(CO)O[C@H]1OP(=O)(O)O (stereo partly drawn) [FP11, 1-O-Phosphoryl-2-deoxy-4-O-tetradecanoyl 3-O-tetradecanoyl-2-tetradecanoylamino-α-D-glucopiranoside]
activation of transcription factors NF-κB and AP-1 in cells without TLR4, MD-2, CD14 (HEK-Blue™ Null2 cells): unable to activate transcription factors NF-κB and AP-1
decrease of bis-ANS fluorescence / inhibition of bis-ANS binding to MD-2 [1]: concentration-dependent decrease of compound bis-ANS fluorescence; also recorded: inhibits the binding of bis-ANS to MD-2 in a dose-dependent manner
displacement of biotinylated LPS from MD-2 ([2]; 160 μM): 55%
ability to displace biotinylated LPS from MD-2 hydrophobic pocket ([2]; increasing concentrations, highest 160 μM): displaces biotinylated LPS from MD-2 hydrophobic pocket in a dose-dependent manner
decrease of 9B4 antibody binding to MD-2 ([3]; 20 μM): 95%
prevention of monoclonal antibody 9B4 binding to MD-2 ([3]; up to 20 μM): prevents the binding of monoclonal antibody to MD-2 in a dose-dependent manner
